In ChEMBL document CHEMBL3244371, “An approach to peripheral vasodilator-beta-adrenergic blocking agents” (J Med Chem, 1977):

Experiments:
[1] = tested on: Rattus norvegicus; experiment: Antihypertensive activity in spontaneously hypertensive rat assessed as maximum fall in mean arterial pressure at 0.312 mg/kg, po; format: functional, Artery
[2] = tested on: Rattus norvegicus; experiment: Antihypertensive activity in spontaneously hypertensive rat assessed as maximum fall in mean arterial pressure at 1.25 mg/kg, po; format: functional, Artery
[3] = tested on: Rattus norvegicus; experiment: Antihypertensive activity in spontaneously hypertensive rat assessed as maximum fall in mean arterial pressure at 5 mg/kg, po; format: functional, Artery
[4] = tested on: Rattus norvegicus; experiment: Antihypertensive activity in spontaneously hypertensive rat assessed as duration of effect at 0.312 mg/kg, po; format: functional
[5] = tested on: Rattus norvegicus; experiment: Antihypertensive activity in spontaneously hypertensive rat assessed as duration of effect at 1.25 mg/kg, po; format: functional
[6] = tested on: Rattus norvegicus; experiment: Antihypertensive activity in spontaneously hypertensive rat assessed as duration of effect at 5 mg/kg, po; format: functional
[7] = tested on: Canis familiaris; experiment: Peripheral vasodilating activity in anesthetized trachea-cannulated mongrel dog assessed as increase in iliac blood flow at 1600 ug administered intraarterially in presence of isoproterenol; format: functional, Canis lupus familiaris, Artery
[8] = tested on: Canis familiaris; experiment: Peripheral vasodilating activity in anesthetized trachea-cannulated mongrel dog assessed as increase in iliac blood flow at 8 ug administered intraarterially in presence of isoproterenol; format: functional, Canis lupus familiaris, Artery
[9] = tested on: Canis familiaris; experiment: Peripheral vasodilating activity in anesthetized trachea-cannulated mongrel dog assessed as increase in iliac blood flow at 16 ug administered intraarterially in presence of isoproterenol; format: functional, Canis lupus familiaris, Artery
[10] = tested on: Canis familiaris; experiment: Peripheral vasodilating activity in anesthetized trachea-cannulated mongrel dog assessed as increase in iliac blood flow at 32 ug administered intraarterially in presence of isoproterenol; format: functional, Canis lupus familiaris, Artery
[11] = tested on: Canis familiaris; experiment: Peripheral vasodilating activity in anesthetized trachea-cannulated mongrel dog assessed as increase in iliac blood flow at 1600 ug administered intraarterially co-treated with 2000 ug/kg timolol in presence of isoproterenol; format: functional, Canis lupus familiaris, Artery
[12] = tested on: Canis familiaris; experiment: Peripheral vasodilating activity in anesthetized trachea-cannulated mongrel dog assessed as increase in iliac blood flow at 8 ug administered intraarterially co-treated with 2000 ug/kg timolol in presence of isoproterenol; format: functional, Canis lupus familiaris, Artery
[13] = tested on: Canis familiaris; experiment: Peripheral vasodilating activity in anesthetized trachea-cannulated mongrel dog assessed as increase in iliac blood flow at 16 ug administered intraarterially co-treated with 2000 ug/kg timolol in presence of isoproterenol; format: functional, Canis lupus familiaris, Artery
[14] = tested on: Canis familiaris; experiment: Peripheral vasodilating activity in anesthetized trachea-cannulated mongrel dog assessed as increase in iliac blood flow at 32 ug administered intraarterially co-treated with 2000 ug/kg timolol in presence of isoproterenol; format: functional, Canis lupus familiaris, Artery
[15] = tested on: Canis familiaris; experiment: Blockade of isoprolerenol-induced hypotension in iv dosed anesthetized trachea-cannulated mongrel dog assessed as mean arterial pressure; format: functional; settings: Canis lupus familiaris, Artery
[16] = tested on: Canis familiaris; experiment: Blockade of isoprolerenol-induced tachycardia in iv dosed anesthetized trachea-cannulated mongrel dog assessed as heart rate; format: functional; settings: Canis lupus familiaris
[17] = tested on: Rattus norvegicus; experiment: Antihypertensive activity in spontaneously hypertensive rat assessed as maximum fall in mean arterial pressure at 20 mg/kg, ip; format: functional, Artery; settings: route intraperitoneal
[18] = tested on: Rattus norvegicus; experiment: Antihypertensive activity in spontaneously hypertensive rat assessed as maximum fall in mean arterial pressure at 20 mg/kg, po; format: functional, Artery
[19] = tested on: Canis familiaris; experiment: Peripheral vasodilating activity in anesthetized trachea-cannulated mongrel dog assessed as increase in iliac blood flow at 60 ug administered intraarterially in presence of isoproterenol; format: functional, Canis lupus familiaris, Artery
[20] = tested on: Rattus norvegicus; experiment: Antihypertensive activity in spontaneously hypertensive rat assessed as duration of effect at 20 mg/kg, ip; format: functional; settings: route intraperitoneal
[21] = tested on: Rattus norvegicus; experiment: Antihypertensive activity in spontaneously hypertensive rat assessed as duration of effect at 20 mg/kg, po; format: functional
[22] = tested on: Rattus norvegicus; experiment: Antihypertensive activity in spontaneously hypertensive rat assessed as maximum fall in mean arterial pressure at 1 mg/kg, po; format: functional, Artery
[23] = tested on: Rattus norvegicus; experiment: Antihypertensive activity in spontaneously hypertensive rat assessed as maximum fall in mean arterial pressure at 2 mg/kg, po; format: functional, Artery
[24] = tested on: Rattus norvegicus; experiment: Antihypertensive activity in spontaneously hypertensive rat assessed as duration of effect at 1 mg/kg, po; format: functional
[25] = tested on: Rattus norvegicus; experiment: Antihypertensive activity in spontaneously hypertensive rat assessed as duration of effect at 2 mg/kg, po; format: functional
[26] = tested on: Canis familiaris; experiment: Peripheral vasodilating activity in anesthetized trachea-cannulated mongrel dog assessed as increase in iliac blood flow at 1600 ug administered intraarterially co-treated with 800 ug/kg timolol in presence of isoproterenol; format: functional, Canis lupus familiaris, Artery
[27] = tested on: Rattus norvegicus; experiment: Antihypertensive activity in spontaneously hypertensive rat assessed as maximum fall in mean arterial pressure at 8 mg/kg, po; format: functional, Artery
[28] = tested on: Rattus norvegicus; experiment: Antihypertensive activity in spontaneously hypertensive rat assessed as duration of effect at 8 mg/kg, po; format: functional
[29] = tested on: Canis familiaris; experiment: Peripheral vasodilating activity in anesthetized trachea-cannulated mongrel dog assessed as increase in iliac blood flow at 800 ug administered intraarterially co-treated with 320 ug/kg timolol in presence of isoproterenol; format: functional, Canis lupus familiaris, Artery
[30] = tested on: Canis familiaris; experiment: Peripheral vasodilating activity in anesthetized trachea-cannulated mongrel dog assessed as increase in iliac blood flow at 800 ug administered intraarterially in presence of isoproterenol; format: functional, Canis lupus familiaris, Artery
[31] = tested on: Canis familiaris; experiment: Peripheral vasodilating activity in anesthetized trachea-cannulated mongrel dog assessed as increase in iliac blood flow at 800 ug administered intraarterially co-treated with 800 ug/kg timolol in presence of isoproterenol; format: functional, Canis lupus familiaris, Artery
[32] = tested on: Canis familiaris; experiment: Toxicity in renal hypertensive dog assessed as elevation in heart rate at 4 to 16 mg/kg; format: organism-based, Canis lupus familiaris; set-up: dose 4-16 mg/kg; settings: in vivo

SMILES | Activity [2] [mmHg] | Activity [3] [mmHg] | Time [5] [h] | Time [6] [h] | Activity [7] [mL/min] | Activity [11] [mL/min] | ED50 [15] [mg/kg] | ED50 [16] [mg/kg] | Activity [17] [mmHg] | Activity [18] [mmHg] | Time [20] [h] | other results
CC(C)(C)NCC(O)COc1ccc(-c2nc(C(F)(F)F)c[nH]2)cc1 (racemic) | 36 | 49 | 18 | 18 | 9 | 15 | 0.036 | 0.009 |  |  |  | Activity [1]: 21 mmHg; Time [4]: 7 h; Activity [8]: 52 mL/min; Activity [9]: 58 mL/min; Activity [10]: 63 mL/min; Activity [12]: 10 mL/min; Activity [13]: 17 mL/min; Activity [14]: 17 mL/min
CC(C)(C)NC[C@H](O)COc1ncccc1-c1ncc(C(F)(F)F)[nH]1 |  |  |  |  | 4 | 9 | 0.125 | 0.25 | 8 | 6 |  | 
CC(C)(C)NC[C@H](O)COc1ccc(-c2nc(C(F)(F)F)c[nH]2)cc1 | 40 | 56 | 18 | >24 |  |  | 0.038 | 0.0076 |  |  |  | Activity [1]: 24 mmHg; Time [4]: 12 h; Activity [19]: 5 mL/min
CC(C)(C)NC[C@H](O)COc1ccccc1-c1ncc(C(F)(F)F)[nH]1 |  |  |  |  | 35 | 33 | 0.1 | 0.3 | 32 | 0 | <7 | 
CC(C)(C)NC[C@H](O)COc1cccc(-c2ncc(C(F)(F)F)[nH]2)c1 |  |  |  |  |  |  | 0.086 | > 1 | 40 | 5 | >7 | 
CC(C)(C)NC[C@@H](O)COc1ccc(-c2ncc(C(F)(F)F)[nH]2)cc1 | 16 | 22 | 2 | 6 |  |  | > 1 | 0.102 |  | 49 |  | Time [21]: 8 h
NNc1nncc2ccccc12 [HYDRALAZINE] |  |  |  |  | 66 |  |  |  |  |  |  | Activity [22]: 30 mmHg; Activity [23]: 40 mmHg; Time [24]: 6 h; Time [25]: >7 h
CC(C)(C)NC[C@H](O)COc1ccc(-c2ncc(C(F)(F)F)[nH]2)cn1 |  |  |  |  | 103 |  | 0.058 | 0.0025 | 40 | 0 | >7 | Activity [26]: 38 mL/min
FC(F)(F)c1cnc(-c2cccnc2)[nH]1 |  |  |  |  |  |  |  |  |  |  |  | Activity [22]: 21 mmHg; Activity [23]: 39 mmHg; Activity [27]: 48 mmHg; Time [24]: 2 h; Time [25]: 6 h; Time [28]: >6 h; Activity [29]: 99 mL/min; Activity [30]: 93 mL/min; Activity [31]: 76 mL/min; Activity [32]: 82 bpm
